# Results as given in US7094600B2, “Screen for sodium channel modulators” (The Research Foundation of State University of New York, priority 2003, dated 2006).
# “And” between values parts separate entries of the source, which are not always exact repeats. Equal values may be shown once. Read-outs that look alike come from different tables or passages of the source.
# Columns and labels:
# [1] = molecular target: T1, hNav1.4-L443C/A444W Na+ channels (Homo sapiens, UniProt P35499, A444W/L443C); test: Whole-cell patch clamp of hNav1.4-L443C/A444W mutant Na+ channels in stably transfected HEK293 cells; assay type: cell-based
# T1 construct: full-length hNav1.4 cDNA inserted in the pRc/CMV vector; expressed in transfected cells; pRc/CMV vector
# T1 sequence (P35499 whole entry L443C/A444W): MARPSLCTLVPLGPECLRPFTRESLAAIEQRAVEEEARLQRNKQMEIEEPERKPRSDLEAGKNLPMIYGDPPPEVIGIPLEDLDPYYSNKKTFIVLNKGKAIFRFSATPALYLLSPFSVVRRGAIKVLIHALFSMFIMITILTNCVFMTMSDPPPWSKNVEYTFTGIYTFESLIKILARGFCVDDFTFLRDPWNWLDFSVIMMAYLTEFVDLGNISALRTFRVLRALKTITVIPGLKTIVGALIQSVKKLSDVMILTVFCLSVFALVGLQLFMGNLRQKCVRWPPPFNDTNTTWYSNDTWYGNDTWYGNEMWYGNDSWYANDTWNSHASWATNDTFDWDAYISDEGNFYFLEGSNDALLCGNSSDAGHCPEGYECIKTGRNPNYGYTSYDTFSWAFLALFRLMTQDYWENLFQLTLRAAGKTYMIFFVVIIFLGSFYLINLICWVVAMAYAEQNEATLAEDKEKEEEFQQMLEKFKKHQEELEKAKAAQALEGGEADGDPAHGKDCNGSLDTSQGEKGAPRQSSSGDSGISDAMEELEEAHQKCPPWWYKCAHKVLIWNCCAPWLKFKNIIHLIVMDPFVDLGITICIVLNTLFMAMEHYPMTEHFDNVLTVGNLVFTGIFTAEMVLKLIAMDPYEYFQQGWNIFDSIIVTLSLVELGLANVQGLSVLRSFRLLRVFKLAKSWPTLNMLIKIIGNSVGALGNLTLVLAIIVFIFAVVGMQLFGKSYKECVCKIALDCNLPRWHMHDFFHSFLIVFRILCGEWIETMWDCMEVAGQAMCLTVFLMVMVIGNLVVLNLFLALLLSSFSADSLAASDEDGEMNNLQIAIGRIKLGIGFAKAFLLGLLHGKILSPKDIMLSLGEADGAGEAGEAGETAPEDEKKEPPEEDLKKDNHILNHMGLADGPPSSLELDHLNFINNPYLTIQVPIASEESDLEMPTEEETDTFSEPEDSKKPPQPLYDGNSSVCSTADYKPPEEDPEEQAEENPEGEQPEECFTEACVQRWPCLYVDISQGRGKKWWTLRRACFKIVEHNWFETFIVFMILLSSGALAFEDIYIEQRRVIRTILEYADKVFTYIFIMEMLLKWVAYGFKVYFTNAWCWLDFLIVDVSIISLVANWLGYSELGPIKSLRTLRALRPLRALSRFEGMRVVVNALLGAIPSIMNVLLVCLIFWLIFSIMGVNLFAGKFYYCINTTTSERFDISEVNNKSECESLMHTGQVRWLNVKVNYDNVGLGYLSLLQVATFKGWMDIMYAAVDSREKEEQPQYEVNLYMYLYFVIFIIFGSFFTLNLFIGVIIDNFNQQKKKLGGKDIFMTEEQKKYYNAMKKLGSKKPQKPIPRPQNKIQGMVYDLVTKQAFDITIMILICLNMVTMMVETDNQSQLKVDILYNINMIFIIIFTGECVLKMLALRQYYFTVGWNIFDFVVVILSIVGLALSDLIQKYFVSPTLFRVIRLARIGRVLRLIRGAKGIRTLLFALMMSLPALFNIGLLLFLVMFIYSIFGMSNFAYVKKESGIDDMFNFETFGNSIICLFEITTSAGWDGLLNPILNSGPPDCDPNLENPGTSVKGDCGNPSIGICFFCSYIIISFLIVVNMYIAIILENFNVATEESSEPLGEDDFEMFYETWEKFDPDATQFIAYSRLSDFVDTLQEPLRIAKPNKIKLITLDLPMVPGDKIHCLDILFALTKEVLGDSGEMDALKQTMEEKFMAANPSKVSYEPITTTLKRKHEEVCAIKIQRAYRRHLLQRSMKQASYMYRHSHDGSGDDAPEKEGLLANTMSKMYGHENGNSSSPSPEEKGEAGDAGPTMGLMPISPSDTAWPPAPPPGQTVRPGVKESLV
# [2] = system: pronase-treated Na+ channels; settings: cited from earlier work
# IFM/QQQ mutant channels = settings: cited from earlier work
# [3] = molecular target: T2, rNav1.4 Na+ channels (wild-type) (Rattus norvegicus, UniProt P15390); test: Whole-cell patch clamp of wild-type rNav1.4 Na+ currents in transfected HEK293t cells; assay type: cell-based; parameters: time constant of recovery from inactivated block / block of peak Na+ currents (resting state): dose or concentration left out as unconfirmed; settings: for time for full recovery from flecainide block (dissociation): holding potential −140 mV, block developed after channel activation
# T2 construct: expressed in transfected cells; host or cells: HEK293t, transient, calcium phosphate; pcDNA1/Amp vector
# T2 sequence (P15390 whole entry): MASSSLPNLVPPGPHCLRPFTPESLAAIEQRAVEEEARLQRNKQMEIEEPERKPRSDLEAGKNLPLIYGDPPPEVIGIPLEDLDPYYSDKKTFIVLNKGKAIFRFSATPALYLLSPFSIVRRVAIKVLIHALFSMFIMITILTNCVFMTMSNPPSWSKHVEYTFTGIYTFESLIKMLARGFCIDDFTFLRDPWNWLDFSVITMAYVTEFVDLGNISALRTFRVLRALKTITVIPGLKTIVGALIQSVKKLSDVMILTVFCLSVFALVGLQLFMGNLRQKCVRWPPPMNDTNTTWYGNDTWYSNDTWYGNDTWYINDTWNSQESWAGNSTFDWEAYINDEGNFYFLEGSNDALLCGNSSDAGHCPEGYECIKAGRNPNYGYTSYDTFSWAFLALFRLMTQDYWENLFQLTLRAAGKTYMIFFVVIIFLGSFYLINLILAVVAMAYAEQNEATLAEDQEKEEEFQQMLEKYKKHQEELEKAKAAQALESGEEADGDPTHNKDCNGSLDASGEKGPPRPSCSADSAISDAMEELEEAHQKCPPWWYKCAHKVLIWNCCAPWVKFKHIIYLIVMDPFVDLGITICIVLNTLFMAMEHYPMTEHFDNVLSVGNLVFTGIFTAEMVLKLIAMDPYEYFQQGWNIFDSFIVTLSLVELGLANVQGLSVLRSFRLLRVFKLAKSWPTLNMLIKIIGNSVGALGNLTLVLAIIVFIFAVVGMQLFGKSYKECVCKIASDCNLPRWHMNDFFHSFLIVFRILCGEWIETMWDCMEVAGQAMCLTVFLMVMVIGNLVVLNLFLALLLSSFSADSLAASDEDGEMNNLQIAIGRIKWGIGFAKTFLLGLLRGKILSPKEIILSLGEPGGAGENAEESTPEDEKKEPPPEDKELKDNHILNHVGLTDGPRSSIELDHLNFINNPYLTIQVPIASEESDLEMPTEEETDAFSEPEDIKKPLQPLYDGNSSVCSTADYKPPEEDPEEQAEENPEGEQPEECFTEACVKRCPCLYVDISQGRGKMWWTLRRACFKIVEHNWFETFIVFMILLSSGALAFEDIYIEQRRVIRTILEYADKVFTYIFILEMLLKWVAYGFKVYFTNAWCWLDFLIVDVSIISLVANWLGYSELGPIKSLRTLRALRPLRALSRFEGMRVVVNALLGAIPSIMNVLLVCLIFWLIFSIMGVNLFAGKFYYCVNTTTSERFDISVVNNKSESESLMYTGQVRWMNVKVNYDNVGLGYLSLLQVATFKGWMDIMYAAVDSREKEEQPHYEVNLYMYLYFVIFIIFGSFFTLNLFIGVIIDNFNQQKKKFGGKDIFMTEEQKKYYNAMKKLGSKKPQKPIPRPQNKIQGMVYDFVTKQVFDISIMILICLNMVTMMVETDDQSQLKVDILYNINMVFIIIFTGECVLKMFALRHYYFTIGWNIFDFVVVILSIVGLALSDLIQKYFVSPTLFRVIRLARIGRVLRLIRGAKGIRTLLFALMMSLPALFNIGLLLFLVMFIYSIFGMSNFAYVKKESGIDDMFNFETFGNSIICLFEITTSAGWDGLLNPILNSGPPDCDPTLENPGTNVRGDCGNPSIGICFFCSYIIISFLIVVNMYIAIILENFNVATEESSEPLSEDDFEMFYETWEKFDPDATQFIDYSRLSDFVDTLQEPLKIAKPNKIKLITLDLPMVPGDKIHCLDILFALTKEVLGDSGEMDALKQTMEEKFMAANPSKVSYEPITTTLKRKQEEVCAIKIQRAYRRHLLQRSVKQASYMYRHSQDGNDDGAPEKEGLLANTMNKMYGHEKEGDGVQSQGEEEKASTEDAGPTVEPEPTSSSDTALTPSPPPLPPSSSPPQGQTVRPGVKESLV
# T2 sequence (Q00954 19-218 partner): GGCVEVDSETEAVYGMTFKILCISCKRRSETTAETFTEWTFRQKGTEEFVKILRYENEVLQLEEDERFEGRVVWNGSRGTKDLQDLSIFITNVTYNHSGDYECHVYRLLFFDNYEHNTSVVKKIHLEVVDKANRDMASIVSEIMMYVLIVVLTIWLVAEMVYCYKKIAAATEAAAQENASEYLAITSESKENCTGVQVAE
# [4] = molecular target: T3, rNav1.4-L435W/L437C/A438W mutant channels (Rattus norvegicus, UniProt P15390, A438W/L435W/L437C); test: Whole-cell patch clamp of inactivation-deficient rNav1.4-L435W/L437C/A438W mutant channels in HEK293t cells; assay type: cell-based
# T3 construct: expressed in transfected cells; host or cells: HEK293t, transient, calcium phosphate; pcDNA1/Amp vector
# T3 sequence (P15390 whole entry L435W/L437C/A438W): as the sequence (P15390 whole entry) above, with L435W, L437C, A438W counted along it
# T3 sequence (Q00954 19-218 partner): as the sequence (Q00954 19-218 partner) above
# [5] = as antiarrhythmic agent; cited from earlier work
# [6] = 10 μM, external, 100-ms test pulse at +50 mV
# [7] = 30 μM flecainide, 10 s conditioning prepulses -180 to -10 mV, test +30 mV
compound,measurement,setting,value
"CCCNC[C@H](O)COc1ccccc1C(=O)CCc1ccccc1.Cl [(S)-propafenone, (S)-Propafenone-HCl]",inhibition of peak Na+ currents,"[1]; 10 μM, external","also inhibited, but to a lesser extent"
same,block of persistent late Na+ currents,[1]; [6],potently blocks
CC[N+](CC)(CC)CC(=O)Nc1c(C)cccc1C [QX-314],block of inactivation-deficient Na+ currents,[2],does not block
"NC1=N[C@H](O)[C@H]2[C@H]3O[C@]4(O)O[C@@H]([C@@H](O)[C@@]2(N1)[C@@H]4O)[C@]3(O)CO [TTX, Tetrodotoxin]",Hill coefficient,[1],1.09±0.04
same,time-dependent block by TTX,[1],no evidence of a time-dependent block
CCCCc1oc2ccccc2c1C(=O)c1cc(I)c(OCCN(CC)CC)c(I)c1 [amiodarone],block of persistent late Na+ currents,[1],"Most, if not all, persistent late currents were inhibited"
same,inhibition of peak Na+ currents,[1],"also reduced slowly, but again to a lesser extent"
same,time to steady-state block of late Na+ currents (wash-in),[1],15 min
same,wash-out of block,[1],slow and incomplete
CC(C)N(CCC(C(N)=O)(c1ccccc1)c1ccccn1)C(C)C (stereo not drawn) [disopyramide],open-channel block in IFM/QQQ mutant channels,IFM/QQQ mutant channels,weak open-channel block
O=C(NCC1CCCCN1)c1cc(OCC(F)(F)F)ccc1OCC(F)(F)F (stereo not drawn) [flecainide],IC50,[3],~400 µM
same,time constant of recovery from inactivated block,[3],> 100 s
same,"V0.5 of Boltzmann fit, voltage dependence of flecainide block",[3]; [7],−57.3±2.7 mV
same,"kE (slope factor) of Boltzmann fit, voltage dependence of flecainide block",[3]; [7],17.6±2.1 mV
same,time for flecainide block to reach steady state,"[3]; 30 mM flecainide, +50 mV pulses at 30-s interval",5 to 7 min
same,inhibition at 30000 µM,"[3]; HEK-293T, read-out: peak currents inhibited after flecainide block reached steady state",~50%
same,time constant of development of the inactivated block,[3]; at −50 mV,10.9 ± 1.3 s
same,block of peak Na+ currents (resting state),"[3]; cell not stimulated repetitively in 1,000 s",~20%
same,time for full recovery from flecainide block (dissociation),[3],"≥ 1,000 s"
same,time for full recovery from flecainide block (dissociation),[3]; listed as Flecainide,"up to 10,000 s"
same,additional use-dependent block,[3]; repetitive pulses at 5 Hz for 60 pulses,~50%
same,difference between the high and low flecainide affinities,[3]; −20 mV vs −140 mV conditioning,less than 3 fold
same,time to steady state block at each concentration,"[4]; 140 ms test pulse to +30 mV every 30 seconds, 0.1 to 30 μM",≤ 5 min
same,block of the maintained Na+ currents,"[4]; at +50 mV, 0.1 to 30 μM flecainide",strong time-dependent block
same,time constant of recovery from the open channel block,[4]; at −140 mV,11.2 s
same,IC50,"[4]; conditioning pulse −50 mV, 10 s, read-out: IC50 with a conditioning pulse at −50 mV for 10 s (estimated block at the peak current)",4.1 ± 0.1 µM
same,Kd,"[4]; from off-rate/on-rate, read-out: calculated dissociation constant (open channel)",0.81 µM
same,difference of resting and open channel affinities,[4]; inactivation-deficient mutant channels,~500 fold
same,IC50,"[4]; open channel, read-out: IC50 for the open block (estimated block at the end of the pulse)",0.61 ± 0.07 µM
same,IC50,"[4]; resting channel, holding −140 mV, read-out: IC50 for the resting block (estimated block at the peak current)",208 µM and 307 µM
same,on-rate constant with the open channel,"[4]; test pulse +30 mV, slope of 1/τ vs concentration",1.49e+07 M⁻¹ s⁻¹
same,off-rate constant with the open channel,"[4]; test pulse +30 mV, y-intercept of 1/τ vs concentration",12.2 s⁻¹
same,block of persistent late Na+ currents,[1]; [6],strong block
same,open-channel block in IFM/QQQ mutant channels,IFM/QQQ mutant channels,weak open-channel block
Cc1cccc(C)c1OCC(C)N (stereo not drawn) [mexiletine],block of persistent late Na+ currents,[1]; [6],strong block
same,therapeutic plasma concentration,[5],2.8 to 11.2 µM
batrachotoxin [BTX],activation threshold of BTX-modified Na+ currents,[1]; 5 μM BTX in pipette solution,−80 mV
same,effect on fast and slow inactivation,[1]; 5 μM BTX in pipette solution,completely eliminates the fast and the slow inactivation
same,shift of activation threshold,"[1]; 5 μM BTX in pipette solution, after 400 repetitive pulses at +50 mV, 1 Hz",~−40 mV
